Experiment [1] concerns the target GDP-bound NRAS wild-type protein (Homo sapiens, UniProt P01111). As to the kind of experiment: Binding to NRAS by surface plasmon resonance (SPR), Single Cycle Kinetics. The following applies: SPR. On the technique in general: Surface plasmon resonance follows binding to a sensor surface in real time, without labels.
In experiment [2] the target is GDP-bound HRAS wild-type protein (Homo sapiens, UniProt P01112). The experiment is described as follows: Binding to HRAS by surface plasmon resonance (SPR), Single Cycle Kinetics. The following applies: SPR.
Chain of GDP-bound HRAS wild-type protein (P01112 whole entry): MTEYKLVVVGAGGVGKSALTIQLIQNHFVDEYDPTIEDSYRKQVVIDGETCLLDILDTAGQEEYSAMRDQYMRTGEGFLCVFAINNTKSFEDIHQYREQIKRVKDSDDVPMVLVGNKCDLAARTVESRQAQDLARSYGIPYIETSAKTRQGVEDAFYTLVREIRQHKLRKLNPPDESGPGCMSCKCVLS
The mark [3] stands for this setting: KD ratio, GDP-bound NRAS wild-type vs GDP-bound KRAS wild-type.
[4] abbreviates: KD ratio, GDP-bound HRAS wild-type vs GDP-bound KRAS wild-type.

Chain of GDP-bound NRAS wild-type protein (P01111 whole entry): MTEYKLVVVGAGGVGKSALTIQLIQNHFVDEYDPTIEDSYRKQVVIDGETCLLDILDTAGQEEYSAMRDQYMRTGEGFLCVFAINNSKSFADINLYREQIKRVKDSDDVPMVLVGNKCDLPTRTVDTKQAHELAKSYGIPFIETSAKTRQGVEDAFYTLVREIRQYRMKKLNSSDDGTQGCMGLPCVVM

With `CC[C@H](C)[C@@H]1NC(=O)[C@H](CC)N(C)C(=O)C[C@@H](C(=O)N(C)C)N(CC)C(=O)[C@H](C2CCCC2)N(C)C(=O)C2(CCC2)NC(=O)[C@@H]2CCCN2C(=O)[C@H](CCc2cc(F)c(C(F)(F)F)c(F)c2)NC(=O)CN(C)C(=O)[C@H](Cc2ccc(C(F)(F)F)cc2)N2CC/C=C\C[C@@H](C2=O)N(C)C(=O)CN(C)C1=O` [PP1106], the “NRAS/KRAS (ratio of KD value with respect to NRAS to KD value with respect to KRAS)” value in experiment [1] (setting [3]) was “A (a compound having 10 or more and less than 20 is denoted as A)”. For the same compound, in experiment [2] (setting [4]), the “HRAS/KRAS (ratio of KD value with respect to HRAS to KD value with respect to KRAS)” value was “A (a compound having 10 or more and less than 20 is denoted as A)”.
For the compound `CCC[C@H]1C(=O)N[C@@H](C2CCCC2)C(=O)N(C)CC(=O)N(C)[C@H]2C/C=C\CCN(C2=O)[C@@H](Cc2ccc(C(F)(F)F)cc2)C(=O)N(C)CC(=O)N[C@@H](CCc2ccc(C(F)(F)F)c(Cl)c2)C(=O)N2C[C@H](OCC)C[C@H]2C(=O)NC2(CC(C)(C)C2)C(=O)N(C)[C@@H](C2CCCC2)C(=O)N(C)[C@H](C(=O)N(C)C)CC(=O)N1C` [PP2984], the “NRAS/KRAS (ratio of KD value with respect to GDP-bound NRAS wild-type protein to KD value with respect to KRAS)” value in experiment [1] (GDP-bound wild-type proteins) is “A (a compound having 10 or more and less than 20 is denoted as A)”. In addition, the “HRAS/KRAS (ratio of KD value with respect to GDP-bound HRAS wild-type protein to KD value with respect to KRAS)” value in experiment [2] (GDP-bound wild-type proteins) was “B (a compound having 3 or more and less than 10 is denoted as B)”.
`CCO[C@@H]1C[C@H]2C(=O)NC3(CCC3)C(=O)N(C)[C@@H](C(CC)CC)C(=O)N(C)[C@H](C(=O)N3CCCCC3)CC(=O)N(C)[C@H]3CCCCC/C=C/c4ccc(cc4)C[C@@H](C(=O)N(C)CC(=O)N[C@@H](CCc4ccc(Cl)c(Cl)c4)C(=O)N2C1)N1CC/C=C\C[C@@H](C1=O)N(C)C(=O)CN(C)C(=O)[C@H]([C@@H](C)CC)NC3=O` [PP3051]: the “NRAS/KRAS (ratio of KD value with respect to GDP-bound NRAS wild-type protein to KD value with respect to KRAS)” value in experiment [1] (GDP-bound wild-type proteins) is listed as “AA (a compound having 20 or more is denoted as AA)”. Also, in experiment [2] (GDP-bound wild-type proteins), the “HRAS/KRAS (ratio of KD value with respect to GDP-bound HRAS wild-type protein to KD value with respect to KRAS)” value was “A (a compound having 10 or more and less than 20 is denoted as A)”.
`CC[C@H](C)[C@@H]1NC(=O)[C@H](CC2CCC2)N(C)C(=O)C[C@@H](C(=O)N(C)C)N(C)C(=O)[C@H](C2CCCC2)N(C)C(=O)C2(CC(C)(C)C2)NC(=O)[C@@H]2C[C@H](C)CN2C(=O)[C@H](CCc2cc(F)c(C(F)(F)F)c(F)c2)NC(=O)CN(C)C(=O)[C@H](Cc2ccc(C(F)(F)F)cc2)N2CC/C=C\C[C@@H](C2=O)N(C)C(=O)CN(C)C1=O` [PP1684]: the “NRAS/KRAS (ratio of KD value for NRAS to KD value for KRAS)” value in experiment [1] (setting [3]) was “A (a compound having 10 or more and less than 20 is denoted as A)”. Also, in experiment [2] (setting [4]), the “HRAS/KRAS (ratio of KD value for HRAS to KD value for KRAS)” value is “A (a compound having 10 or more and less than 20 is denoted as A)”.
`CCC(CC)[C@H]1C(=O)N(C)[C@H](C(=O)N(C)C)CC(=O)N(C)[C@@H](COC)C(=O)N[C@@H]([C@@H](C)CC)C(=O)N(C)CC(=O)N(C)[C@H]2C/C=C\CCN(C2=O)[C@@H](CC2CCC(F)(F)CC2)C(=O)N(C)CC(=O)N[C@@H](CCc2ccc(C(F)(F)F)c(OC)c2)C(=O)N2C[C@@H](C)C[C@H]2C(=O)NC2(CC(C)(C)C2)C(=O)N1C` [PP2442]: the “NRAS/KRAS (ratio of KD value with respect to NRAS to KD value with respect to KRAS)” value in experiment [1] (GDP-bound NRAS wild-type vs GDP-bound KRAS wild-type) is “A (a compound having 10 or more and less than 20 is denoted as A)”. Further, the “HRAS/KRAS (ratio of KD value with respect to HRAS to KD value with respect to KRAS)” value in experiment [2] (GDP-bound HRAS wild-type vs GDP-bound KRAS wild-type) is “A (a compound having 10 or more and less than 20 is denoted as A)”.
Turning to `CCC[C@H]1C(=O)N[C@@H]([C@@H](C)CC)C(=O)N(C2CC2)CC(=O)N(C)[C@H]2C/C=C\CCN(C2=O)[C@@H](Cc2ccc(C(F)(F)F)cc2)C(=O)N(C)CC(=O)N[C@@H](CCc2cc(F)c(C(F)(F)F)c(F)c2)C(=O)N2C[C@H](OCC)C[C@H]2C(=O)N(C)C2(CCC2)C(=O)N(C)[C@@H](C2CCCC2)C(=O)N(C)[C@H](C(=O)N2CCCC2)CC(=O)N1C` [PP3112], the “NRAS/KRAS (ratio of KD value with respect to GDP-bound NRAS wild-type protein to KD value with respect to KRAS)” value in experiment [1] (GDP-bound wild-type proteins) is “A (a compound having 10 or more and less than 20 is denoted as A)”. The “HRAS/KRAS (ratio of KD value with respect to GDP-bound HRAS wild-type protein to KD value with respect to KRAS)” value in experiment [2] (GDP-bound wild-type proteins) was “B (a compound having 3 or more and less than 10 is denoted as B)”.
Consider `CC[C@H](C)[C@@H]1NC(=O)[C@H](CC(C)C)N(C)C(=O)C[C@@H](C(=O)N2CCCC2)N(C)C(=O)[C@H](C2CCCC2)N(C)C(=O)C2(CCCC2)NC(=O)[C@@H]2CCCN2C(=O)[C@H](CCc2cc(F)c(C(F)(F)F)c(F)c2)NC(=O)CN(C)C(=O)[C@H](Cc2ccc(C(F)(F)F)cc2)N2CCCCC[C@@H](C2=O)N(C)C(=O)CN(C)C1=O` [PP0509], for which the “NRAS/KRAS (ratio of KD value with respect to GDP-bound NRAS wild-type protein to KD value with respect to KRAS)” value in experiment [1] is “B (a compound having 3 or more and less than 10 is denoted as B)”. In addition, the “HRAS/KRAS (ratio of KD value with respect to GDP-bound HRAS wild-type protein to KD value with respect to KRAS)” value in experiment [2] was “B (a compound having 3 or more and less than 10 is denoted as B)”.

These data come from patent US20250230193A1, “CYCLIC COMPOUND HAVING SELECTIVE KRAS INHIBITORY EFFECT ON HRAS AND NRAS” (CHUGAI SEIYAKU KABUSHIKI KAISHA, priority 2022, published 2025).
